Data as given in patent US10597388B2, “Pyridazinone herbicides” (FMC CORPORATION, priority 2014, dated 2020).
Like-named read-outs stand apart in the source and are kept apart here.

Columns and labels:
Type in all cases: in vivo
[1] = test system: momingglory (Ipomoea spp.); assay: Test A greenhouse herbicide test, pre- and postemergence; conditions: 240 h, 1000 g ai/ha, 0 to 100 scale
In short: (§1)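 Seeds in loam–sand blend received a preemergence directed soil spray; plants at 2–10 cm, one- to two-leaf stage, received postemergence sprays. Compounds in a non-phytotoxic solvent with surfactant. After about 10 d in a greenhouse, injury rated visually versus untreated controls on a 0–100 scale (100 = complete control).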

[2] = test system: crabgrass, large (large crabgrass, Digitaria sanguinalis); assay: as above; conditions: 240 h, 1000 g ai/ha, 0 to 100 scale
In short: as §1

[3] = test system: pigweed (Amaranthus retroflexus); assay: as above; conditions: for pest or weed control at 1000 g/ha: Amaranthus retroflexus, 240 h, 1000 g ai/ha
In short: as §1

[4] = test system: foxtail, giant (giant foxtail, Setaria faberii); assay: as above; conditions: for pest or weed control at 1000 g/ha: Setaria faberi, 240 h, 1000 g ai/ha
In short: as §1

[5] = test system: corn (Zea mays); assay: as above
In short: as §1

[6] = test system: wheat (Triticum aestivum); assay: as above; conditions: for plant injury at 1000 g/ha: Triticum aestivum, 240 h, 1000 g ai/ha
In short: as §1

[7] = test system: barnyardgrass (Echinochloa crus-galli); assay: as above; conditions: for pest or weed control at 1000 g/ha: Echinochloa crus-galli, 240 h, 1000 g ai/ha
In short: as §1

[8] = test system: velvetleaf (Abutilon theophrasti); assay: as above; conditions: 240 h, 1000 g ai/ha, 0 to 100 scale
In short: as §1

[9] = test system: rice (Oryza sativa); assay: Test B flooded paddy test; conditions: 250 g ai/ha, Flood, visual rating on scale of 0 to 100 where 0 is no effect and 100 is complete control, 13 to 15 d after treatment
In short: (§2)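 Plants grown to the 2-leaf stage. At treatment, pots were flooded to 3 cm above the soil, compound was applied directly to the paddy water, and that depth was held throughout. After 13 to 15 d in the greenhouse, response was rated visually against controls on a 0 (no effect) to 100 (complete control) scale.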

[10] = test system: sedge, umbrella (small-flower umbrella sedge, Cyperus difformis); assay: Test B flooded paddy test; conditions: 250 g ai/ha, Flood, visual rating on scale of 0 to 100 where 0 is no effect and 100 is complete control, 13 to 15 d after treatment
In short: as §2

[11] = test system: ducksalad (Heteranthera limosa); assay: Test B flooded paddy test; conditions: 250 g ai/ha, Flood, visual rating on scale of 0 to 100 where 0 is no effect and 100 is complete control, 13 to 15 d after treatment
In short: as §2

[12] = test system: barnyardgrass (Echinochloa crus-galli); assay: Test B flooded paddy test; conditions: 250 g ai/ha, Flood, visual rating on scale of 0 to 100 where 0 is no effect and 100 is complete control, 13 to 15 d after treatment
In short: as §2

[13] = test system: galium (catchweed bedstraw, Galium aparine); assay: Test A greenhouse herbicide test, postemergence
In short: (§3)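 Pot-grown plants (loam soil/sand blend), 2–10 cm tall at the one- to two-leaf stage, received postemergence sprays of formulated test chemical. After about 10 d in the greenhouse, injury was rated visually against untreated controls on a 0 (no effect) to 100 (complete control) scale.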

[14] = test system: blackgrass (Alopecurus myosuroides); assay: Test A greenhouse herbicide test, postemergence
In short: as §3

[15] = test system: ryegrass, Italian (Italian ryegrass, Lolium multiflorum); assay: Test A greenhouse herbicide test, pre- and postemergence
In short: as §1

[16] = test system: ragweed (common ragweed, Ambrosia elatior); assay: as above
In short: as §1

[17] = test system: kochia (Kochia scoparia); assay: as above
In short: as §1

[18] = 125 g ai/ha, 0 to 100 scale, 0 no effect, 100 complete control
[19] = 500 g ai/ha, visual rating after approx. 10 d, 0 to 100 scale (0 no effect, 100 complete control)
[20] = Postemergence, 125 g ai/ha, 0 to 100 scale, 0 no effect, 100 complete control
[21] = Postemergence, 500 g ai/ha, visual rating after approx. 10 d, 0 to 100 scale (0 no effect, 100 complete control)
[22] = Preemergence, 125 g ai/ha, visual injury rating, 0 to 100 scale (0 no effect, 100 complete control), approx. 10 d
[23] = Preemergence, 500 g ai/ha, 0 to 100 scale where 0 is no effect and 100 is complete control

## Cc1ccc2oc(C)c(-c3c(O)c(C)nn(C)c3=O)c2c1 [Compound 7, 4-(2,5-dimethyl-3-benzofuranyl)-5-hydroxy-2,6-dimethyl-3(2H)-pyridazinone]
[1]; post-emergence, Postemergence, 0 is no effect, 100 is complete control, read-out: Morningglory plant response rating
  pest or weed control at 1000 g/ha: 100%
[1]; pre-emergence, Preemergence, 0 no effect, 100 complete control, read-out: Plant response rating, Morningglory
  pest or weed control at 1000 g/ha: 80%
[2]; post-emergence, Postemergence, 0 is no effect, 100 is complete control, read-out: Crabgrass, Large plant response rating
  pest or weed control at 1000 g/ha: 50%
[2]; pre-emergence, Preemergence, 0 no effect, 100 complete control, read-out: Plant response rating, Crabgrass, Large
  pest or weed control at 1000 g/ha: 90%
[3]; post-emergence, Postemergence, 0 to 100 scale, 0 is no effect, 100 is complete control, read-out: Pigweed plant response rating
  pest or weed control at 1000 g/ha: 100%
[3]; pre-emergence, Preemergence, 0 to 100 scale, 0 no effect, 100 complete control, read-out: Plant response rating, Pigweed
  pest or weed control at 1000 g/ha: 100%
[4]; post-emergence, Postemergence, 0 to 100 scale, 0 is no effect, 100 is complete control, read-out: Foxtail, Giant plant response rating
  pest or weed control at 1000 g/ha: 90%
[4]; pre-emergence, Preemergence, 0 to 100 scale, 0 no effect, 100 complete control, read-out: Plant response rating, Foxtail, Giant
  pest or weed control at 1000 g/ha: 90%
[5]; Zea mays, post-emergence, 240 h, Postemergence, 1000 g ai/ha, 0 to 100 scale, 0 is no effect, 100 is complete control, read-out: Corn plant response rating
  plant injury at 1000 g/ha: 10%
[5]; Zea mays, pre-emergence, 240 h, Preemergence, 1000 g ai/ha, 0 to 100 scale, 0 no effect, 100 complete control
  Corn plant response rating (crop injury, 0 = no effect, 100 = complete kill) at 1000 g/ha: 30%
[6]; post-emergence, Postemergence, 0 to 100 scale, 0 is no effect, 100 is complete control, read-out: Wheat plant response rating
  plant injury at 1000 g/ha: 20%
[6]; pre-emergence, Preemergence, 0 to 100 scale, 0 no effect, 100 complete control, read-out: Plant response rating, Wheat
  plant injury at 1000 g/ha: 0%
[7]; post-emergence, Postemergence, 0 to 100 scale, 0 is no effect, 100 is complete control, read-out: Barnyardgrass plant response rating
  pest or weed control at 1000 g/ha: 90%
[7]; pre-emergence, Preemergence, 0 to 100 scale, 0 no effect, 100 complete control, read-out: Plant response rating, Barnyardgrass
  pest or weed control at 1000 g/ha: 100%
[8]; post-emergence, Postemergence, 0 is no effect, 100 is complete control, read-out: Velvetleaf plant response rating
  pest or weed control at 1000 g/ha: 100%
[8]; pre-emergence, Preemergence, 0 no effect, 100 complete control, read-out: Plant response rating, Velvetleaf
  pest or weed control at 1000 g/ha: 80%
[9]; Oryza sativa, 360 h, read-out: Plant response rating, Rice
  plant injury at 250 g/ha: 0%
[10]; Cyperus difformis, 360 h, read-out: Plant response rating, Sedge, Umbrella
  pest or weed control at 250 g/ha: 60%
[11]; Heteranthera limosa, 360 h, read-out: Plant response rating, Ducksalad
  pest or weed control at 250 g/ha: 60%
[12]; Echinochloa crus-galli, 360 h, read-out: Plant response rating, Barnyardgrass
  pest or weed control at 250 g/ha: 20%

## Cc1ccc2ccccc2c1-c1c(OS(C)(=O)=O)c(Br)nn(C)c1=O [Compound 155]
[13]; [18]
  Plant response rating, Galium: 90
[13]; [19]
  Plant response rating, Galium: 90
[14]; [18]
  Plant response rating, Blackgrass: 60
[14]; [19]
  Plant response rating, Blackgrass: 70
[3]; [20]
  Plant response rating, Pigweed: 90
[3]; [21]
  Plant response rating, Pigweed: 100
[3]; [22]
  Plant response rating, Pigweed: 100
[3]; [23]
  Plant response rating, Pigweed: 100
[4]; [20]
  Plant response rating, Foxtail, Giant: 80
[4]; [21]
  Plant response rating, Foxtail, Giant: 90
[4]; [22]
  Plant response rating, Foxtail, Giant: 60
[4]; [23]
  Plant response rating, Foxtail, Giant: 90
[15]; [20]
  Plant response rating, Ryegrass, Italian: 90
[15]; [21]
  Plant response rating, Ryegrass, Italian: 90
[15]; [22]
  Plant response rating, Ryegrass, Italian: 70
[15]; [23]
  Plant response rating, Ryegrass, Italian: 90
[5]; [20]
  Plant response rating, Corn: 0
[5]; [21]
  Plant response rating, Corn: 20
[6]; [20]
  Plant response rating, Wheat: 30
[6]; [21]
  Plant response rating, Wheat: 50
[16]; [20]
  Plant response rating, Ragweed: 100
[16]; [21]
  Plant response rating, Ragweed: 100
[16]; [22]
  Plant response rating, Ragweed: 90
[16]; [23]
  Plant response rating, Ragweed: 90
[7]; [20]
  Plant response rating, Barnyardgrass: 30
[7]; [21]
  Plant response rating, Barnyardgrass: 80
[7]; [22]
  Plant response rating, Barnyardgrass: 50
[7]; [23]
  Plant response rating, Barnyardgrass: 80
[17]; [20]
  Plant response rating, Kochia: 70
[17]; [21]
  Plant response rating, Kochia: 80
[17]; [22]
  Plant response rating, Kochia: 20
[17]; [23]
  Plant response rating, Kochia: 90
[9]
  Plant response rating, Rice: 20
[10]
  Plant response rating, Sedge, Umbrella: 65
[11]
  Plant response rating, Ducksalad: 50
[12]
  Plant response rating, Barnyardgrass: 0
